Experimental data reported in article PMC3606385 (PLoS ONE, 2013).
Like-named read-outs stand apart in the source and are kept apart here.

Columns and labels:
Rat 11β-HSD1 [1] = target: T1, Rat 11β-HSD1 (Rattus norvegicus, UniProt P16232); test: 11β-HSD1 assay in adult rat testis microsomes; assay type: biochemical; settings: microsomes, screening
T1 construct: endogenous in cells; host or cells: primary adult Sprague-Dawley rat Leydig cells
Description: (§1) Rats were euthanized by CO2, and livers, testes and kidneys were collected. Rat liver, testis and kidney microsomes were prepared as described previously. In brief, rat liver and kidney were homogenized in […] PBS buffer containing 0.25 M sucrose, and nuclei and large cell debris were removed by centrifugation at 1500× g for 10 min. The post-nuclear supernatants were centrifuged twice at 105,000×g, the resultant microsomal pellets were resuspended. Protein contents were measured by Bio-Rad Dye Reagent Concentrate (Cat.#500-0006). Microsomes were used for measurement of 11β-HSD1 and 11β-HSD2 activities.
(§2) The rat testis and liver or human liver microsomes were used for 11β-HSD1 assay. 11β-HSD1 activity was performed in the microsome according to a previously described method. […] 2 µg microsomes were added to each tube to initiate the reaction and the reaction mixture was incubated for up to 2 hrs, during which the reaction is within the linear range. The rest procedure was similar to 11β-HSD1 assay in intact cells.
(§3) The IC50 was determined by adding different concentrations of each compound in the 11β-HSD1 or 11β-HSD2 reaction as described. The mode of inhibition was assayed by adding various concentrations of steroid substrates in the presence of an inhibitor as described.

Human 11β-HSD1 [2] = target: T2, Human 11β-HSD1 (Homo sapiens, UniProt P28845); test: 11β-HSD1 assay in microsomes from CHOP cells transfected with human HSD11B1; assay type: biochemical; settings: microsomes, screening
T2 construct: expressed in transfected cells; host or cells: CHOP cells (transient, FuGENE)
T2 sequence (P28845 whole entry): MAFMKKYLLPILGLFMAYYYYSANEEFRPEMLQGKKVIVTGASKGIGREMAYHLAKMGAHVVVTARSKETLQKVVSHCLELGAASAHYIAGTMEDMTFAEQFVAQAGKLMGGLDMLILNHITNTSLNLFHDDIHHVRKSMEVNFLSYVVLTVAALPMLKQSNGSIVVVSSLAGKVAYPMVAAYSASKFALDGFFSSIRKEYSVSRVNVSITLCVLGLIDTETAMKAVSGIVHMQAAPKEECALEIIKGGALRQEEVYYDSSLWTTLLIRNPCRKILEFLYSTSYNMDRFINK
Description: (§4) An expression plasmid was constructed to express human 11β-HSD1 (HSD11B1) cDNA in pcDNA I expression vector from its original human HSD11B1 vector (pBluescriptSK+).[15]. The Escherichia coli transformants carrying an insert were selected by colony hybridization, and a clone with the insert in the correct orientation relative to the vector T7 promoter was identified by restriction mapping. All transfections were carried out on 80% confluent cultures in 12-well plates. Aliquots of 1 µg HSD11B1 pcDNA I were transfected into mammalian CHOP cells with the FuGENE Transfection Reagent (Roche) according to manufacturer's protocol. Cells were allowed to grow for 24 hours in media containing 10% fetal bovine serum. Then media were removed and cells were harvested for 11β-HSD1 activity assay.
as §2, §3

Human 11β-HSD1 [3] = target: T2, Human 11β-HSD1; test: 11β-HSD1 assay in intact CHOP cells transfected with human HSD11B1; assay type: cell-based; settings: for Human 11β-HSD1 Potency to Curcumin (fold): CHOP cells transfected with human HSD11B1, relative to curcumin
Description: as §4
(§5) 11β-HSD1 reductase activity was performed in intact cells using endogenous cofactor NADPH as described previously. […] 25×10^3 cells were added to each tube to initiate the reaction and the reaction mixture was incubated for up to 2 hrs, during which the reaction is within the linear range. At the end of reaction, the reaction was stopped by adding 2 ml ice-cold ether. The steroids were extracted, and the organic layer was dried under nitrogen. The steroids were separated chromatographically on thin layer plates in chloroform and methanol (90∶10, v/v), and the radioactivity was measured using a scanning radiometer (System AR2000, Bioscan Inc., Washington, DC) as described previously. The percentage conversion of 11DHC to CORT or cortisone to cortisol was calculated by dividing the radioactive counts identified as 11-OH-steroids by the total counts.
as §3

Rat 11β-HSD1 [4] = target: T1, Rat 11β-HSD1; test: 11β-HSD1 assay in intact rat Leydig cells; assay type: cell-based; settings: for Rat 11β-HSD1 Potency to Curcumin (fold) / IC50: intact rat Leydig cells; for Rat 11β-HSD1 Potency to Curcumin (fold): relative to curcumin; for IC50: read-out: Rat 11β-HSD1 IC50 (nM) in Leydig cells
Description: Rat Leydig cells contain the highest 11β-HSD1 activity in all cell types of rat tissues, and were used for rat 11β-HSD1 enzyme sources. Purified rat Leydig cells were obtained from 90-day-old Sprague-Dawley rats by collagenase digestion of the testes followed by Percoll density centrifugation of the cell suspension, according to the previously described method. […] The purity of cell fractions was evaluated by histochemical staining for 3β-hydroxysteroid dehydrogenase activity with […] etiocholanolone as the steroid substrate.
as §5, §3

Rat 11β-HSD2 = target: T3, Rat 11β-HSD2 (Rattus norvegicus, UniProt P50233); test: 11β-HSD2 assay in rat kidney microsomes; assay type: biochemical; settings: for IC50: rat kidney microsomes
T3 construct: from tissue; host or cells: rat kidney microsomes
T3 sequence (P50233 1-400): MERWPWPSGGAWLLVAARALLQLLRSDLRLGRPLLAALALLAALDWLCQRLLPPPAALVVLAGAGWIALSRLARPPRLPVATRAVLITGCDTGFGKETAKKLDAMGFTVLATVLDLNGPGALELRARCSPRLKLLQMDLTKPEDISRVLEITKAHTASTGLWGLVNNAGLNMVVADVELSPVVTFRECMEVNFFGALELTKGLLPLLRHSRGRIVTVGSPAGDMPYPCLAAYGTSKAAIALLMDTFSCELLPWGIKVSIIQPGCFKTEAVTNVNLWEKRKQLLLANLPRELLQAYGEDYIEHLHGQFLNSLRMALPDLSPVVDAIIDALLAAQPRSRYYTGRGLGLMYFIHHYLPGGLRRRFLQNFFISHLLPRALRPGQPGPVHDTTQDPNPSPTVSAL
Description: as §1
The rat and human kidney microsomes were used for 11β-HSD2 sources. 11β-HSD2 activity was performed in the microsome according to a previously described method. […] 8 (rat) or 20 (human) µg kidney microsomes were added to each tube to initiate the reaction and the reaction mixture was incubated for up to 3 hrs, during which the reaction is within the linear range. The rest procedure was similar to 11β-HSD1 assay. The percentage conversion of CORT to 11DHC or cortisol to cortisone was calculated by dividing the radioactive counts identified as 11keto-steroids by the total counts.
as §3

Human 11β-HSD2 = target: T4, Human 11β-HSD2 (Homo sapiens, UniProt P80365); test: 11β-HSD2 assay in human kidney microsomes; assay type: biochemical; settings: for IC50: human kidney microsomes, read-out: IC50 (nM) Human 11β-HSD2
T4 construct: tissue Gentest (Woburn, MA); host or cells: human kidney microsomes
T4 sequence (P80365 1-405): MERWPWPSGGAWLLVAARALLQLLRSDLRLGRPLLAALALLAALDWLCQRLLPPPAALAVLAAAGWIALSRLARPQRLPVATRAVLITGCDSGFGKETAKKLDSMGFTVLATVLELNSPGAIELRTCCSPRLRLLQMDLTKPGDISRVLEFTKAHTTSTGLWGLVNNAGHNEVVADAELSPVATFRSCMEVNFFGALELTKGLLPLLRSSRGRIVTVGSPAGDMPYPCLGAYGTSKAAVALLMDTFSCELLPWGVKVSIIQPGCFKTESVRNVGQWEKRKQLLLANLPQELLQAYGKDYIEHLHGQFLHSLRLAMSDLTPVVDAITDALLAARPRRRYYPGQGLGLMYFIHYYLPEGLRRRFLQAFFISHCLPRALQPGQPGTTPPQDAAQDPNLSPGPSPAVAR
Description: The rat and human kidney microsomes were used for 11β-HSD2 sources. 11β-HSD2 activity was performed in the microsome according to a previously described method. In brief, the assay tubes contained 25 nM substrate CORT (for rat) or cortisol (for human), spiked with 30,000 cpm their respective ^3H-11β-hydroxyl steroid, 0.2 mM NAD+ and 0.1 mM DTT in the PBS buffer. 8 (rat) or 20 (human) µg kidney microsomes were added to each tube to initiate the reaction and the reaction mixture was incubated for up to 3 hrs, during which the reaction is within the linear range. The rest procedure was similar to 11β-HSD1 assay. The percentage conversion of CORT to 11DHC or cortisol to cortisone was calculated by dividing the radioactive counts identified as 11keto-steroids by the total counts.
as §3

[5] = CHOP cells transfected with human HSD11B1, read-out: Human 11β-HSD1 IC50 (nM) in CHOP cells

T1 sequence (P16232 whole entry): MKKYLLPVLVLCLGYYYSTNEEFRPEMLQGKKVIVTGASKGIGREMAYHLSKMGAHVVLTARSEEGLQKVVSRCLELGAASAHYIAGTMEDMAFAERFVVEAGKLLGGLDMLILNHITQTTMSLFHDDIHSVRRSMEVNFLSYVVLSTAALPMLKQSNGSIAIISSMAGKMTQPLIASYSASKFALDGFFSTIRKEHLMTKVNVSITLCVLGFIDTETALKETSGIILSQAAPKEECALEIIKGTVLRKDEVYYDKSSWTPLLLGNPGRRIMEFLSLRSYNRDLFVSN

Row | SMILES | Inhibitory effect against rat 11β-HSD1 in nutraceutical screen (Rat 11β-HSD1 [1]) | Inhibitory effect against human 11β-HSD1 in nutraceutical screen (Human 11β-HSD1 [2]) | Human 11β-HSD1 Potency to Curcumin (fold) (Human 11β-HSD1 [3]) | IC50 (Human 11β-HSD1 [3]; [5]) [nM] | Rat 11β-HSD1 Potency to Curcumin (fold) (Rat 11β-HSD1 [4]) | IC50 (Rat 11β-HSD1 [4]) [nM] | IC50 (Rat 11β-HSD2) [nM] | IC50 (Human 11β-HSD2) [nM] | Inhibition of rat 11β-HSD2 at 100 µM (Rat 11β-HSD2) | Inhibition of human 11β-HSD2 at 100 µM (Human 11β-HSD2) | Inhibition of human 11β-HSD1 at 100 μM (Human 11β-HSD1 [3]; 100 μM, intact cells) | Inhibition of rat 11β-HSD1 at 100 μM (Rat 11β-HSD1 [4]; 100 μM, intact cells) | IC50 (Human 11β-HSD1 [3]; intact CHOP cells transfected with human HSD11B1, read-out: IC50 human 11β-HSD1 in intact cells) [nM]
1 | COc1ccc2cc3[n+](cc2c1OC)CCc1cc2c(cc1-3)OCO2 [berberine] | only curcumin (compound 1) showed inhibitory effects | only curcumin (compound 1) showed inhibitory effects |  |  |  |  |  |  |  |  |  |  | 
2 | O=C(/C=C/c1ccc(Br)o1)/C=C/c1ccc(Br)o1 [compound 2] |  |  | 2.31 | 995 | 1.38 | 4210 | > 100000 | > 100000 |  |  |  |  | 
3 | Cc1ccsc1/C=C/C(=O)/C=C/c1sccc1C [compound 4, (1E,4E)-1,5-bis(3-methylthiophen-2-yl) penta-1,4-dien-3-one] |  |  | 12.54 | 183 | 50.75 | 114 | > 100000 | 19600 |  |  |  |  | 
4 | O=C1/C(=C/c2ccc(Br)o2)CC/C1=C\c1ccc(Br)o1 [compound 7] |  |  | 1.73 | 1330 | 1.85 | 3130 | > 100000 | > 100000 |  |  |  |  | 
5 | Cc1ccc(/C=C2\CC/C(=C\c3ccc(C)s3)C2=O)s1 [compound 8] |  |  | 20.68 | 111 | 2.17 | 2670 | > 100000 | > 100000 | did not inhibit | did not inhibit |  |  | 
6 | Cc1ccsc1/C=C1\CC/C(=C\c2sccc2C)C1=O [compound 9, (1E,4E)-1,5-bis(3-methylthiophen-2-yl) cyclopentanone] |  |  |  | > 100000 |  | > 100000 | > 100000 | > 100000 |  |  | did not inhibit | did not inhibit | 
7 | Cn1cccc1/C=C1\CC/C(=C\c2cccn2C)C1=O [compound 10] |  |  |  | > 100000 |  | > 100000 | > 100000 | > 100000 |  |  |  |  | 
8 | O=C1/C(=C/c2cccs2)CC/C1=C\c1cccs1 [compound 11] |  |  | 10.20 | 225 | 5.51 | 1050 | > 100000 | > 100000 | did not inhibit | did not inhibit |  |  | 
9 | O=C1/C(=C/c2ccc(Br)o2)CCC/C1=C\c1ccc(Br)o1 [compound 12] |  |  | 0.75 | 3050 | 0.54 | 10800 | > 100000 | > 100000 |  |  |  |  | 
10 | Cc1ccc(/C=C2\CCC/C(=C\c3ccc(C)s3)C2=O)s1 [compound 13] |  |  | 0.50 | 4590 | 0.48 | 11900 | > 100000 | > 100000 |  |  |  |  | 
11 | Cn1cccc1/C=C1\CCC/C(=C\c2cccn2C)C1=O [compound 15] |  |  | 1.09 | 2100 | 0.49 | 11800 | > 100000 | > 100000 |  |  |  |  | 
12 | O=C1/C(=C/c2cccs2)CCC/C1=C\c1cccs1 [compound 16, (1E,4E)-1,5-bis(thiophen-2-yl) cyclohexanone] |  |  | 0.64 | 3570 | 2.27 | 2550 | > 100000 | > 100000 |  |  |  |  | 3570
13 | COc1ccc(-c2oc3c(CC=C(C)C)c(O[C@@H]4O[C@H](CO)[C@@H](O)[C@H](O)[C@H]4O)cc(O)c3c(=O)c2O[C@@H]2O[C@@H](C)[C@H](O)[C@@H](O)[C@H]2O)cc1 [icariin] | only curcumin (compound 1) showed inhibitory effects | only curcumin (compound 1) showed inhibitory effects |  |  |  |  |  |  |  |  |  |  | 
